Entries after “also recorded” stand apart in the source; their conditions may differ.
Legend:
primary OPCs [1] = test: Screen for protection of OPC division at sublethal concentrations of psychosine; assay type: cell-based, rat; settings: psychosine concentrations that suppress division without appreciable death
Procedure: Experiments were conducted to identify FDA-approved agents that rescue precursor cells of the CNS from the effects of the lipids thought to be toxic in KD, GD and MLD. To identify therapeutic agents that could be candidates for relatively rapid translation to the clinic, candidate agents were screened (based on cellular and molecular analyses) and unbiased drug screens were conducted using the NINDSII library of 1040 compounds approved by the FDA or in clinical trials. The intent of these screens was to discover previously unknown activities of agents for which pharmacokinetic and toxicological information is already available. The initial screening assays used are for (i) protection against OPC death induced by lethal concentrations of toxic lipids (48 hr exposure) and (ii) protection of OPC division induced by exposure to sublethal concentrations of toxic lipids. […]

primary OPCs [2] = test: Screen for protection against OPC death induced by lethal concentrations of psychosine; assay type: cell-based, rat; settings: for rescue of cell survival from psychosine: primary OPCs, lethal psychosine exposure
Procedure: Experiments were conducted to identify FDA-approved agents that rescue precursor cells of the CNS from the effects of the lipids thought to be toxic in KD, GD and MLD. To identify therapeutic agents that could be candidates for relatively rapid translation to the clinic, candidate agents were screened (based on cellular and molecular analyses) and unbiased drug screens were conducted using the NINDSII library of 1040 compounds approved by the FDA or in clinical trials. The intent of these screens was to discover previously unknown activities of agents for which pharmacokinetic and toxicological information is already available. The initial screening assays used are for (i) protection against OPC death induced by lethal concentrations of toxic lipids (48 hr exposure) and (ii) protection of OPC division induced by exposure to sublethal concentrations of toxic lipids.
In this screen, a library of 1040 compounds, either approved for use or in clinical trials, were examined at three different doses for their ability to protect against psychosine-induced cell death. […]

primary OPCs [3] = test: Survival of OPCs exposed to toxic lipids (calcein AM / propidium iodide, CELIGO); assay type: cell-based
Procedure: Whether toxic lipids have similar effects on the function of oligodendrocyte precursor cells (OPCs, the direct ancestors of myelin-forming oligodendrocytes), due to the common features of myelin breakdown and failure to repair such damage in LSDs, was determined. These experiments all used standard techniques (see Mayer et al. PNAS, 91: 7496-7500 (1994); Ibarrola et al. Dev. Biol. 180: 1-121 (1996); Smith et al. PNAS 97: 10032-10037 (2000); Power et al. Dev. Biol. 245: 362-375 (2002); Dietrich et al. J. Biol. 5: e22 (2006); Li et al. PLoS Biol. 5: e35 (2007)), as adapted to enable rapid automated analysis of microscopy images captured using the CELIGO® imaging system (Brooks Automation, Chelmsford, Mass.). This system enables collection of data using brightfield and three-color fluorescence and provides similar information to be obtained at the single cell level in adherent cell cultures as yielded by flow cytometry. This approach enables quantitatively analysis of 80 different experimental conditions (in triplicate) per hour.
Studies on division and survival of OPCs exposed to 0.1, 0.5, 1, 2, 5 or 10 μM PC, GPS or LS were conducted for 1, 2, 3 or 5 days. These experiments followed standard procedures (see Mayer et al. PNAS, 91: 7496-7500 (1994); Dietrich et al. J. Biol. 5: e22 (2006); and Han et al. J. Biol. 7 (4):12 (2008)) except that cell death was quantified using calcein AM and propidium iodide (PI) labeling of live cultures was used to identify live and dead cells, respectively. […] These dyes effectively overcome the problems with dyes for which cell numbers are inferred from metabolic activity (e.g., MTT, Alamar Blue), and provide quantitative information on cell numbers. Independent confirmation was obtained in all cases by visual examination of cultures. In these, and all other cases, all experiments were repeated at least three times, and all data points were collected in triplicate. All experiments were conducted in conditions of 5% O2, to more closely mimic physiological oxygen concentrations.
The sensitivity of primary OPCs to PC was determined. The sensitivity of the cells to glucopsychosine (GPC) and lysosulfatide (LS) was also examined. […] Thus, OPCs are even more sensitive to PC than oligodendrocytes, which are sensitive at 10 μM psychosine. More critically, they are an order of magnitude more sensitive than indicated by studies described in Zaka et al. (Mol. Cell Neurosci. 30 (3): 398-407 (2005)) on immortalized cell lines.

twitcher −/− mice = test: In vivo treatment of twitcher -/- mice (model of Krabbe disease); settings: for appearance and behavior (films, still images): 24-day-old twi−/− mice
Excerpt: In order to determine whether agents identified in in vitro studies are capable of providing an in vivo benefit, the effects of IGF-1 were examined in twitcher −/− mice, an accepted model of Krabbe disease. The twitcher −/− mice harbor a mutation in galactocerebosidase that mimics Krabbe disease. The strategy for in vivo analyses was to determine whether FDA-approved compounds of potential interest improve neurological symptoms and/or extend survival times of twi−/− mice. These studies used techniques employed in studies on toxicity of chemotherapeutic agents for the CNS (See Dietrich et al. J. Biol. 5 (7): e22 (2006); Han et al. CNS J. Biol. 7: e12 (2008)).
In in vivo experiments, IGF-I was administered daily, beginning 10 days after birth, through i.p. injection (100 μg/kg, which is below dosages used in other studies using peripheral administration (See Aberg et al. J. Neurosci. 20: 2896-2903 (2000)). This time point is earlier than the expression of neurological symptoms but is considerably later than that used in attempts to treat these mice by HSC transplants, enzyme replacement therapy or both combined (See Qin et al. Mol. Genet. Metab. 107: 186-196 (2012)). Mice were evaluated at 24 days of age to enable analysis of cell division in vivo. Comparative analysis after 40 days was not possible due to death of the control (saline-treated) twi−/− mice shortly after 40 days of age.
Drugs are delivered once daily by i.p. administration (using 100 μg/kg, which provide benefit (see FIG. 8). All animals are marked and genotyped within the first week after birth to identify +/+, +/− and −/− pups. Outcome measures such as (i) weight gain, motor activity, rotorod analysis, auditory brainstem response and survival are analyzed.
Mice were sacrificed at Day 25 to examine OPC division in vivo (FIG. 8).

[4] = test system: primary oligodendrocyte progenitor cells; test: Protection of OPCs against toxicity of glucopsychosine and lysosulfatide; assay type: cell-based; settings: OPC survival
Excerpt: Since lysosomal storage disorders are so rare, there is a strong disincentive to invest heavily in treatments. Therefore, there is a clear need to identify agents that would be of use in the treatment of multiple lysosomal storage disorders. […] Nonetheless, due to the importance of such a goal, the agents that protect against both cell death and suppression of cell division caused by exposure to psychosine were examined in order to determine their potential utility in protection against the toxic effects of glucopsychosine (elevated in Gaucher's disease) and of lysosulfatide (elevated in metachromatic leukodystrophy). These diseases were chosen as they come from two functionally different disease groups as defined by a cellular assay for lysosomal function wherein BODIPY-LacCer uptake is detected.
The ability of agents that protect against psychosine mediated suppression of cell division and cell survival to also protect against the toxicity of glucopsychosine and lysosulfatide was examined.

[5] = test system: immortalized cell line characterized as an oligodendrocyte progenitor cell line; settings: Zaka et al.; immortalized cell line, 50 μM psychosine; cited from earlier work
[6] = test system: human fetal neuroepithelial stem cells (hNSCs); test: Sensitivity of human CNS precursor cells to toxic lipids; assay type: cell-based
[7] = twi−/− mice, 24 days of age, 100 μg/kg i.p. daily

CC(C)(C)CC(C)(C)c1ccc(O)c(Cc2ccc(Cl)cc2Cl)c1 [clofoctol]
rescue of cell division from psychosine (primary OPCs [1]): inhibit cell death and reduce suppression of cell division; also recorded: rescued both cell survival and cell division | rescue of cell survival from psychosine (primary OPCs [2]): inhibit cell death and reduce suppression of cell division; also recorded: rescued both cell survival and cell division

CCCCCCCCCCCCC/C=C/[C@@H](O)[C@@H](N)CO[C@@H]1O[C@H](CO)[C@H](O)[C@H](OS(=O)(=O)O)[C@H]1O [lysosulfatide]
exposure level as low as which toxic for OPCs (primary OPCs [3]): 3.304 | exposure range toxic for primary OPCs and other primary CNS cells (primary OPCs [3]): low micromolar range

CC(C)(C)NCC(O)c1ccccc1Cl (centres unmarked) [tulobuterol]
rescue of cell division from psychosine (primary OPCs [1]): inhibit cell death and reduce suppression of cell division; also recorded: rescued both cell survival and cell division | rescue of cell survival from psychosine (primary OPCs [2]): inhibit cell death and reduce suppression of cell division; also recorded: rescued both cell survival and cell division

COc1ccc(C(Cl)=C(c2ccc(OC)cc2)c2ccc(OC)cc2)cc1 [chlorotrianisene]
rescue of cell division from psychosine (primary OPCs [1]): inhibit cell death and reduce suppression of cell division | rescue of cell division from psychosine (primary OPCs [1]; listed as Chlorotrianisene): rescued both cell survival and cell division | rescue of cell survival from psychosine (primary OPCs [2]): inhibit cell death and reduce suppression of cell division; also recorded: rescued both cell survival and cell division

C=C[C@@]1(C)CC(=O)[C@]2(O)[C@@]3(C)[C@@H](O)CCC(C)(C)[C@@H]3[C@H](O)[C@H](OC(C)=O)[C@@]2(C)O1 [colforsin]
rescue of cell division from psychosine (primary OPCs [1]): inhibit cell death and reduce suppression of cell division; also recorded: rescued both cell survival and cell division | rescue of cell survival from psychosine (primary OPCs [2]): inhibit cell death and reduce suppression of cell division; also recorded: rescued both cell survival and cell division

IGF-1: insulin-like growth factor-I, polypeptide
appearance and behavior (films, still images) (twitcher −/− mice; 100 μg/kg i.p. daily): normal body extension, sleek fur and evidence of extensive locomotor behavior | appearance and behavior (films, still images) (twitcher −/− mice; 100 μg/kg i.p. daily, listed as IGF-I): essentially normal in appearance | locomotor activity (velocity of movement, cm/sec) (twitcher −/− mice; [7]): statistically normal locomotor activity | weight gain (twitcher −/− mice; [7]): normal weight gain | locomotor activity (velocity of movement, cm/sec) (twitcher −/− mice; twi−/− mice, 24 days of age, 100 μg/kg i.p. daily, listed as IGF-I): restores movement to normal levels | more dividing OPCs than in saline-treated mice (twitcher −/− mice; twi−/− mice, corpus callosum, Day 25, 100 μg/kg i.p. daily from 10 days after birth): ~45% | protection against toxicity of glucopsychosine [4]: protects against the toxicity of glucopsychosine and lysosulfatide; also recorded: similarly effective against lysosulfatide and glucopsychosine as it was against psychosine | protection against toxicity of lysosulfatide ([4]; survival data at 5 days): protects against the toxicity of glucopsychosine and lysosulfatide; also recorded: similarly effective against lysosulfatide and glucopsychosine as it was against psychosine | dose giving marked protection from psychosine-induced cell death [5]: one | exposure level giving slight (marginal) reduction of psychosine-induced cell death [5]: 100 ng/mL | rescue of cell division from psychosine (primary OPCs [1]): ability to protect both cell division and cell survival; also recorded: rescued both division and survival; also recorded: protects against psychosine mediated suppression of cell division and cell survival; also recorded: inhibit cell death and reduce suppression of cell division; also recorded: Rescue of cell division is also achieved at physiologically relevant dosages | dosage at which beneficial effects on survival are seen (primary OPCs [2]; primary OPCs exposed to psychosine): 10 ng/mL | rescue of cell survival from psychosine (primary OPCs [2]): ability to protect both cell division and cell survival; also recorded: rescued both division and survival; also recorded: protects against psychosine mediated suppression of cell division and cell survival; also recorded: inhibit cell death and reduce suppression of cell division

VEGF
rescue of cell division from psychosine (primary OPCs [1]): ability to protect both cell division and cell survival; also recorded: inhibit cell death and reduce suppression of cell division | rescue of cell survival from psychosine (primary OPCs [2]): ability to protect both cell division and cell survival; also recorded: inhibit cell death and reduce suppression of cell division

CCCCCCCCCCCCC/C=C/[C@@H](O)C(N)CO[C@@H]1O[C@H](CO)[C@@H](O)[C@H](O)[C@@H]1O (some centres unmarked) [glucopsychosine]
vulnerability of hNSCs compared with rat OPCs [6]: at least as vulnerable | exposure level as low as which toxic for OPCs (primary OPCs [3]): 3.304 | exposure range toxic for primary OPCs and other primary CNS cells (primary OPCs [3]): low micromolar range

— patent publication US20160022775A1, “TREATING LYSOSOMAL STORAGE DISEASE” (UNIVERSITY OF ROCHESTER, priority 2013, published 2016)
